Assay results: patent US7365085B2, “Compounds and methods” (SmithKline Beecham Corporation, priority 2002, dated 2008)

How the values were obtained:
[1] = target: T1, human LXRβ ligand binding domain (Homo sapiens, UniProt P55055); assay: Ligand Sensing Assay (LiSA) for LXRβ agonist activity (recruitment of SRC1-derived peptide); assay type: biochemical; conditions: 1 μM; over a background reading of 10000 fluorescence units
T1 construct: made in house; host or cells: E. coli BL21 (DE3), vector pRSETa
T1 sequence (P55055 184-460 limits assumed): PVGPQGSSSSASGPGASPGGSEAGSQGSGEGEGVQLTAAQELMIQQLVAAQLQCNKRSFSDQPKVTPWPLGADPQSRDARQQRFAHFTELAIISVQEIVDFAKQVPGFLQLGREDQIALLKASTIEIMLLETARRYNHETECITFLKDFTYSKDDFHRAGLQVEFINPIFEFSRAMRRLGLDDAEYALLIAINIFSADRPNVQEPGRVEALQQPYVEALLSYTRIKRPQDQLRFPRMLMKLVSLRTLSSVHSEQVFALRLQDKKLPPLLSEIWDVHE
T1 sequence (Q15788 676-700 partner limits assumed): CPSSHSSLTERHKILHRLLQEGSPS
Description: The term “LXR modulator,” as used herein, means a small molecule that modulates the biological activities of LXRα and/or LXRβ. More specifically, such an LXR modulator either enhances or inhibits the biological activities of LXR. If such a modulator partially or completely enhances the biological activities of LXR, it is a partial or complete LXR agonist, respectively. […] Preferably, the LXR modulator compounds of this invention are LXR agonists. As used herein, the term “LXR agonist” refers to compounds which achieve at least 20% activation of LXR relative to 24(S),25-epoxycholesterol, the appropriate positive control in the HTRF assay described below in Test Method 1. It should be noted that to show activity in the specific Test Methods described herein, the LXR modulator compound must bind to the LXR nuclear receptor and recruit the specific peptide derived from the coactivator protein, SRC1, to the modulator compound-bound LXR complex. […]
Typically 25-50 g of cell paste is resuspended in 250-500 mL TBS, pH 8.0 (25 mM Tris, 150 mM NaCl). […] After washing to baseline absorbance with equilibration buffer, the column is washed with approximately one column volume of TBS pH […] containing 95 mM imidazole. […] Afterwashing to baseline absorbance with the dilution buffer the protein is eluted with a gradient from 50-500 mM NaCl. […]

[2] = target: T2, LXRα ligand binding domain (Homo sapiens, UniProt Q13133); assay: Ligand Sensing Assay for LXRα agonist activity; assay type: biochemical; conditions: 1 μM; over a background reading of 10000 fluorescence units
T2 construct: His tag; made in house
T2 sequence (Q13133 183-447): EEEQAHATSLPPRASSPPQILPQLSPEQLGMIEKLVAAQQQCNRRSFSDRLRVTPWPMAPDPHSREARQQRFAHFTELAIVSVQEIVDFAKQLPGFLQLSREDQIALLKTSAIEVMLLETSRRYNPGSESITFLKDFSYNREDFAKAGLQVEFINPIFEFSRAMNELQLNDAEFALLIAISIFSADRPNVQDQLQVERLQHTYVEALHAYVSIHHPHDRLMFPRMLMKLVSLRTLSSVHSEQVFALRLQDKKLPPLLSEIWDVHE
T2 sequence (Q15788 676-700 partner): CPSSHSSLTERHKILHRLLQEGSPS
Method: Test Method 2: Ligand Sensing Assay for LXRα Agonist Activity
The assay for LXRα was run according to the procedures of Test Method 1, above using his-tagged LXRα ligand binding domain (amino acids 183-447 of Genbank accession number U22662, with the 14th amino acid corrected to A from R). In this assay 1 μM 24(S),25-epoxycholesterol gave a reading of 20000 fluorescence units over a background reading of 10000 fluorescence units.

SMILES: C[C@H](CC[C@@H]1OC1(C)C)[C@H]1CC[C@H]2[C@@H]3CC=C4C[C@@H](O)CC[C@]4(C)[C@H]3CC[C@]12C [24(S),25-epoxycholesterol]
- reading [1]: 20000 fluorescence units
- reading [2]: 20000 fluorescence units
